Among the data in ChEMBL document CHEMBL1641470, “New azoles with antifungal activity: Design, synthesis, and molecular docking” (2011) are MIC80 values, retold here.

≈ marks a conversion by molar mass, not a printed value.

Holding throughout (assay type): functional
Experiment [1] concerns Candida albicans. The experiment is described as follows: Antifungal activity against Candida albicans ATCC Y0109 after 24 hrs by broth microdilution method.
Experiment [2] concerns Cryptococcus neoformans. The experiment is described as follows: Antifungal activity against Cryptococcus neoformans ATCC BLS108 after 72 hrs by broth microdilution method.
Experiment [3] has as its system Candida parapsilosis. Nature of the experiment: Antifungal activity against Candida parapsilosis by broth microdilution method. Particulars: Lodderomyces parapsilosis.
In experiment [4] the test system is Candida tropicalis. Nature of the experiment: Antifungal activity against Candida tropicalis by broth microdilution method.
For experiment [5], the system named is Trichophyton rubrum. Nature of the experiment: Antifungal activity against Trichophyton rubrum by broth microdilution method.
Experiment [6] has as its system Fusarium. Nature of the experiment: Antifungal activity against Fusarium by broth microdilution method.
For experiment [7], the system named is Nannizzia gypsea. The experiment is described as follows: Antifungal activity against Microsporum gypseum by broth microdilution method.
Experiment [8] deals with Aspergillus fumigatus. Nature of the experiment: Antifungal activity against Aspergillus fumigatus by broth microdilution method.

As to `O=C(/C=C/c1ccc(Cl)c(Cl)c1)Nc1ccc(N2CCN(CC(O)(Cn3cncn3)c3ccc(F)cc3F)CC2)c(F)c1` (centres undefined), the MIC80 stood at 1 µg/mL (≈ 1.58 µM) in experiment [1]; 1 µg/mL (≈ 1.58 µM) in experiment [2]; 0.25 µg/mL (≈ 0.396 µM) in experiment [3]; 0.0625 µg/mL (≈ 0.099 µM) in experiment [4]; 0.0625 µg/mL (≈ 0.099 µM) in experiment [5]; 0.25 µg/mL (≈ 0.396 µM) in experiment [6]. Further, the MIC80 in experiment [7] stood at 0.25 µg/mL (≈ 0.396 µM); in experiment [8] it was 4 µg/mL (≈ 6.33 µM).
With `O=C(/C=C/c1cccc(Br)c1)Nc1ccc(N2CCN(CC(O)(Cn3cncn3)c3ccc(F)cc3F)CC2)c(F)c1` (centres undefined), the MIC80 in experiment [1] is 1 µg/mL (≈ 1.56 µM); in experiment [2] it was 0.0156 µg/mL (≈ 0.0243 µM); in experiment [3] it was 0.25 µg/mL (≈ 0.39 µM); in experiment [4] it was 0.0625 µg/mL (≈ 0.0974 µM); in experiment [5], 0.25 µg/mL (≈ 0.39 µM); in experiment [6], 1 µg/mL (≈ 1.56 µM). Also, the values for the MIC80 in experiment [7] and in experiment [8] were 0.25 µg/mL (≈ 0.39 µM) and 4 µg/mL (≈ 6.24 µM), respectively.
As for `O=C(/C=C/c1ccc(Br)cc1)Nc1ccc(N2CCN(CC(O)(Cn3cncn3)c3ccc(F)cc3F)CC2)c(F)c1` (centres undefined), the MIC80 came out at 0.25 µg/mL (≈ 0.39 µM) in experiment [1]; 0.0156 µg/mL (≈ 0.0243 µM) in experiment [2]; 0.0625 µg/mL (≈ 0.0974 µM) in experiment [3]; 0.0156 µg/mL (≈ 0.0243 µM) in experiment [4]; 0.0625 µg/mL (≈ 0.0974 µM) in experiment [5]; 1 µg/mL (≈ 1.56 µM) in experiment [6]. For the same molecule, the figures for the MIC80 in experiment [7] and in experiment [8] were 0.0625 µg/mL (≈ 0.0974 µM) and 1 µg/mL (≈ 1.56 µM), respectively.
With `Cc1ccc(/C=C/C(=O)Nc2ccc(N3CCN(CC(O)(Cn4cncn4)c4ccc(F)cc4F)CC3)c(F)c2)cc1` (centres undefined), the MIC80 in experiment [1] was determined as 0.25 µg/mL (≈ 0.434 µM); in experiment [2], 4 µg/mL (≈ 6.94 µM); in experiment [3] it was 1 µg/mL (≈ 1.73 µM); in experiment [4], 0.0625 µg/mL (≈ 0.108 µM); in experiment [5], 0.25 µg/mL (≈ 0.434 µM); in experiment [6] it was 1 µg/mL (≈ 1.73 µM). In addition, the MIC80 in experiment [7] came out at 0.25 µg/mL (≈ 0.434 µM); in experiment [8] it was 1 µg/mL (≈ 1.73 µM).
Take `COc1ccc(/C=C/C(=O)Nc2ccc(N3CCN(CC(O)(Cn4cncn4)c4ccc(F)cc4F)CC3)c(F)c2)cc1OC` (centres undefined): the MIC80 came out at 0.25 µg/mL (≈ 0.402 µM) in experiment [1]; 1 µg/mL (≈ 1.61 µM) in experiment [2]; 0.25 µg/mL (≈ 0.402 µM) in experiment [3]; 1 µg/mL (≈ 1.61 µM) in experiment [4]; 4 µg/mL (≈ 6.42 µM) in experiment [5]; 4 µg/mL (≈ 6.42 µM) in experiment [6]. Also, the MIC80 in experiment [7] is 0.25 µg/mL (≈ 0.402 µM); in experiment [8], greater than 64 µg/mL.
With `COc1ccc(OC)c(/C=C/C(=O)Nc2ccc(N3CCN(CC(O)(Cn4cncn4)c4ccc(F)cc4F)CC3)c(F)c2)c1` (centres undefined), the MIC80 in experiment [1] stood at 0.0625 µg/mL (≈ 0.1 µM); in experiment [2] it was 1 µg/mL (≈ 1.61 µM); in experiment [3] it was 1 µg/mL (≈ 1.61 µM); in experiment [4] it was 0.25 µg/mL (≈ 0.402 µM); in experiment [5], 0.0625 µg/mL (≈ 0.1 µM); in experiment [6], 64 µg/mL (≈ 103 µM). The MIC80 in experiment [7] was 1 µg/mL (≈ 1.61 µM); in experiment [8], greater than 64 µg/mL.
For `O=C(/C=C/c1ccccc1[N+](=O)[O-])Nc1ccc(N2CCN(CC(O)(Cn3cncn3)c3ccc(F)cc3F)CC2)c(F)c1` (centres undefined), the MIC80 in experiment [1] is 0.25 µg/mL (≈ 0.411 µM); in experiment [2], 1 µg/mL (≈ 1.65 µM); in experiment [3] it was 1 µg/mL (≈ 1.65 µM); in experiment [4] it was 1 µg/mL (≈ 1.65 µM); in experiment [5], 0.25 µg/mL (≈ 0.411 µM); in experiment [6] it was 16 µg/mL (≈ 26.3 µM). In addition, the results for the MIC80 in experiment [7] and in experiment [8] were 1 µg/mL (≈ 1.65 µM) and 64 µg/mL (≈ 105 µM), respectively.
As to `O=C(/C=C/c1cccc([N+](=O)[O-])c1)Nc1ccc(N2CCN(CC(O)(Cn3cncn3)c3ccc(F)cc3F)CC2)c(F)c1` (centres undefined), the MIC80 was determined as 0.0039 µg/mL (≈ 0.00642 µM) in experiment [1]; 0.0625 µg/mL (≈ 0.103 µM) in experiment [2]; 0.0625 µg/mL (≈ 0.103 µM) in experiment [3]; 0.0625 µg/mL (≈ 0.103 µM) in experiment [4]; 0.0625 µg/mL (≈ 0.103 µM) in experiment [5]; 0.0625 µg/mL (≈ 0.103 µM) in experiment [6]. Besides, the MIC80 in experiment [7] is 0.0625 µg/mL (≈ 0.103 µM); in experiment [8], greater than 64 µg/mL.
With `O=C(/C=C/c1ccc([N+](=O)[O-])cc1)Nc1ccc(N2CCN(CC(O)(Cn3cncn3)c3ccc(F)cc3F)CC2)c(F)c1` (centres undefined), the MIC80 in experiment [1] was 0.0156 µg/mL (≈ 0.0257 µM); in experiment [2], 1 µg/mL (≈ 1.65 µM); in experiment [3] it was 0.25 µg/mL (≈ 0.411 µM); in experiment [4] it was 0.25 µg/mL (≈ 0.411 µM); in experiment [5] it was 0.0625 µg/mL (≈ 0.103 µM); in experiment [6], 1 µg/mL (≈ 1.65 µM). The MIC80 in experiment [7] was 0.25 µg/mL (≈ 0.411 µM); in experiment [8], greater than 64 µg/mL.
For `N#Cc1ccc(/C=C/C(=O)Nc2ccc(N3CCN(CC(O)(Cn4cncn4)c4ccc(F)cc4F)CC3)c(F)c2)cc1` (centres undefined), the MIC80 was 0.25 µg/mL (≈ 0.425 µM) in experiment [1]; 1 µg/mL (≈ 1.7 µM) in experiment [2]; 1 µg/mL (≈ 1.7 µM) in experiment [3]; 1 µg/mL (≈ 1.7 µM) in experiment [4]; 4 µg/mL (≈ 6.81 µM) in experiment [5]; 64 µg/mL (≈ 109 µM) in experiment [6]. For the same molecule, the MIC80 in experiment [7] is 4 µg/mL (≈ 6.81 µM); in experiment [8] it was greater than 64 µg/mL.
For `OC(Cn1cncn1)(Cn1cncn1)c1ccc(F)cc1F` [FLUCONAZOLE], the MIC80 was 4 µg/mL (≈ 13.1 µM) in experiment [1]; 1 µg/mL (≈ 3.27 µM) in experiment [2]; 1 µg/mL (≈ 3.27 µM) in experiment [3]; 1 µg/mL (≈ 3.27 µM) in experiment [4]; 0.25 µg/mL (≈ 0.816 µM) in experiment [5]; 16 µg/mL (≈ 52.2 µM) in experiment [6]. The results for the MIC80 in experiment [7] and in experiment [8] were 0.25 µg/mL (≈ 0.816 µM) and 64 µg/mL (≈ 209 µM), respectively.
Turning to `CCC(C)n1ncn(-c2ccc(N3CCN(c4ccc(OCC5COC(Cn6cncn6)(c6ccc(Cl)cc6Cl)O5)cc4)CC3)cc2)c1=O` (centres undefined) [ITRACONAZOLE], the MIC80 in experiment [1] was found to be 1 µg/mL (≈ 1.42 µM); in experiment [2], 1 µg/mL (≈ 1.42 µM); in experiment [3], 0.25 µg/mL (≈ 0.354 µM); in experiment [4] it was 0.25 µg/mL (≈ 0.354 µM); in experiment [5] it was 0.0152 µg/mL (≈ 0.0215 µM); in experiment [6] it was 0.25 µg/mL (≈ 0.354 µM). The MIC80 in experiment [7] stood at 0.0152 µg/mL (≈ 0.0215 µM); in experiment [8], 1 µg/mL (≈ 1.42 µM).
In the case of `C[C@@H](c1ncncc1F)[C@](O)(Cn1cncn1)c1ccc(F)cc1F` [VORICONAZOLE], the MIC80 in experiment [1] was 0.0152 µg/mL (≈ 0.0435 µM); in experiment [2], 0.0152 µg/mL (≈ 0.0435 µM); in experiment [3], 1 µg/mL (≈ 2.86 µM); in experiment [4] it was 0.25 µg/mL (≈ 0.716 µM); in experiment [5], 0.0039 µg/mL (≈ 0.0112 µM); in experiment [6] it was 0.0152 µg/mL (≈ 0.0435 µM). Moreover, the results for the MIC80 in experiment [7] and in experiment [8] were 0.0039 µg/mL (≈ 0.0112 µM) and greater than 64 µg/mL, respectively.
